PubChem BioAssay AID248 (DTP/NCI, 2004)
Several values for one entry are separate records, joined by “and”; a condition that tells them apart may be missing. Equal values may be shown once. Inconclusive results and toxic doses are left out. No stated cut-off is given here; in the data, active means T/C of 150% or more; inactive means T/C below 125%.

System: L1210 leukemia ip in BDF1 mice, survival T/C
Test: NCI In Vivo Anticancer Drug Screen. Data for tumor model L1210 Leukemia (intraperitoneal) in B6D2F1 (BDF1) mice
Details: endpoint: mean survival time, higher = longer survival
In short: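 In this screen, tumor-bearing mice given compound are compared to those given vehicle, and their survival values are reported as a treated-to-control quotient.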

[1] = dose: 100.0 mg/kg/injection, schedule: Q01DX001 (ip), vehicle: carboxymethylcellulose (CMC)
[2] = dose: 200.0 mg/kg/injection, schedule: Q01DX001 (ip), vehicle: carboxymethylcellulose (CMC)
[3] = dose: 400.0 mg/kg/injection, schedule: Q01DX001 (ip), vehicle: carboxymethylcellulose (CMC)
[4] = dose: 100.0 mg/kg/injection, schedule: Q01DX009 (ip), vehicle: Klucel (hydroxypropylcellulose) (HPC)
[5] = dose: 200.0 mg/kg/injection, schedule: Q01DX009 (ip), vehicle: Klucel (hydroxypropylcellulose) (HPC)
[6] = dose: 400.0 mg/kg/injection, schedule: Q01DX009 (ip), vehicle: Klucel (hydroxypropylcellulose) (HPC)
[7] = dose: 100.0 mg/kg/injection, schedule: Q01DX009 (ip), vehicle: saline
[8] = dose: 200.0 mg/kg/injection, schedule: Q01DX009 (ip), vehicle: saline
[9] = dose: 50.0 mg/kg/injection, schedule: Q01DX009 (ip), vehicle: saline
[10] = dose: 100.0 mg/kg/injection, schedule: Q01DX001 (ip), vehicle: saline
[11] = dose: 200.0 mg/kg/injection, schedule: Q01DX001 (ip), vehicle: saline
[12] = dose: 400.0 mg/kg/injection, schedule: Q01DX001 (ip), vehicle: saline

Measured: T/C

N/N=C(\c1ccccc1)c1ccncc1
inactive: dose: 44.0 mg/kg/injection, schedule: Q01DX Z (ip), vehicle: methylcellulose (MC) 106 % of control | dose: 66.0 mg/kg/injection, schedule: Q01DX Z (ip), vehicle: methylcellulose (MC) 90 % of control | dose: 100.0 mg/kg/injection, schedule: Q01DX Z (ip), vehicle: methylcellulose (MC) 87 % of control

COC1OC2COC(c3ccccc3)OC2C(OC(=O)c2ccccc2)C1OC(=O)c1ccccc1 (stereo not drawn)
inactive: dose: 12.5 mg/kg/injection, schedule: Q04DX002 (ip), vehicle: Klucel (hydroxypropylcellulose) (HPC) 104 % of control | dose: 25.0 mg/kg/injection, schedule: Q04DX002 (ip), vehicle: Klucel (hydroxypropylcellulose) (HPC) 100 % of control | dose: 50.0 mg/kg/injection, schedule: Q04DX002 (ip), vehicle: Klucel (hydroxypropylcellulose) (HPC) 98 % of control

O=C(Nc1ccc(C(=O)Nc2cccc(C3=NCCN3)c2)cc1)Nc1ccc(C(=O)Nc2cccc(C3=NCCN3)c2)cc1
inactive: dose: 3.75 mg/kg/injection, schedule: Q01DX Z (ip), vehicle: methylcellulose (MC) 101 % of control | dose: 3.8 mg/kg/injection, schedule: Q01DX Z (ip), vehicle: methylcellulose (MC) 100 % of control | dose: 7.5 mg/kg/injection, schedule: Q01DX Z (ip), vehicle: methylcellulose (MC) 97 % of control | dose: 15.0 mg/kg/injection, schedule: Q01DX Z (ip), vehicle: methylcellulose (MC) 106 % of control | dose: 30.0 mg/kg/injection, schedule: Q01DX Z (ip), vehicle: methylcellulose (MC) 118 % of control and 86 % of control | dose: 50.0 mg/kg/injection, schedule: Q01DX001 (ip), vehicle: carboxymethylcellulose (CMC) 103 % of control | [1] 120 % of control | dose: 120.0 mg/kg/injection, schedule: Q01DX Z (ip), vehicle: methylcellulose (MC) 124 % of control | [2] 120 % of control | dose: 225.0 mg/kg/injection, schedule: Q01DX009 (ip), vehicle: saline with Tween-80 117 % of control | dose: 340.0 mg/kg/injection, schedule: Q01DX009 (ip), vehicle: saline with Tween-80 88 % of control | [3] 108 % of control

COc1cc(/C=N\Nc2ccccc2)ccc1OC(=O)c1ccccc1
inactive: dose: 100.0 mg/kg/injection, schedule: Q04DX002 (ip), vehicle: saline with Tween-80 91 % of control | dose: 200.0 mg/kg/injection, schedule: Q04DX002 (ip), vehicle: saline with Tween-80 91 % of control | dose: 400.0 mg/kg/injection, schedule: Q04DX002 (ip), vehicle: saline with Tween-80 98 % of control

O=C(O)/C=C/SCc1ccccc1
inactive: dose: 100.0 mg/kg/injection, schedule: Q04DX002 (ip), vehicle: Klucel (hydroxypropylcellulose) (HPC) 97 % of control | dose: 200.0 mg/kg/injection, schedule: Q04DX002 (ip), vehicle: Klucel (hydroxypropylcellulose) (HPC) 90 % of control | dose: 400.0 mg/kg/injection, schedule: Q04DX002 (ip), vehicle: Klucel (hydroxypropylcellulose) (HPC) 97 % of control

Nc1ccccc1Oc1ccccc1
inactive: [4] 94 % of control | dose: 100.0 mg/kg/injection, schedule: Q04DX003 (ip), vehicle: Klucel (hydroxypropylcellulose) (HPC) 97 % of control | [5] 97 % of control | dose: 200.0 mg/kg/injection, schedule: Q04DX003 (ip), vehicle: Klucel (hydroxypropylcellulose) (HPC) 98 % of control | [6] 100 % of control | dose: 400.0 mg/kg/injection, schedule: Q04DX003 (ip), vehicle: Klucel (hydroxypropylcellulose) (HPC) 101 % of control

NC(=O)c1ncc(-c2ccccc2)[nH]c1=O
inactive: [7] 105 % of control | [8] 92 % of control

CCC(C)C(C=O)(CCN(C)CC)c1cccc2ccccc12 (stereo not drawn)
inactive: dose: 25.0 mg/kg/injection, schedule: Q04DX002 (ip), vehicle: saline with Tween-80 91 % of control | dose: 50.0 mg/kg/injection, schedule: Q04DX002 (ip), vehicle: saline with Tween-80 94 % of control

CSCSCC(CO)NCc1ccccc1 (stereo not drawn)
inactive: [9] 110 % of control | [10] 97 % of control | [7] 104 % of control | [11] 100 % of control

Nc1nc2ccc(CNc3ccc(C(=O)NC(CC(=O)O)C(=O)O)cc3)cc2c(=O)[nH]1 (stereo not drawn)
inactive: dose: 18.7 mg/kg/injection, schedule: Q01DX001 (ip), vehicle: saline with Tween-80 102 % of control | dose: 37.5 mg/kg/injection, schedule: Q01DX001 (ip), vehicle: saline with Tween-80 113 % of control | dose: 75.0 mg/kg/injection, schedule: Q01DX001 (ip), vehicle: saline with Tween-80 115 % of control | dose: 100.0 mg/kg/injection, schedule: Q01DX001 (ip), vehicle: saline with Tween-80 109 % of control | dose: 200.0 mg/kg/injection, schedule: Q01DX001 (ip), vehicle: saline with Tween-80 109 % of control

Cn1c(N)c(N=Nc2ccc(S(=O)(=O)Nc3nccs3)cc2)c(=O)n(C)c1=O
inactive: [1] 102 % of control | [2] 96 % of control | [3] 90 % of control

CCN1CCC(CCOC)(CN2c3ccccc3Sc3ccccc32)C1 (stereo not drawn)
inactive: dose: 12.5 mg/kg/injection, schedule: Q04DX003 (ip), vehicle: saline 95 % of control | dose: 25.0 mg/kg/injection, schedule: Q04DX003 (ip), vehicle: saline 97 % of control | dose: 50.0 mg/kg/injection, schedule: Q04DX003 (ip), vehicle: saline 104 % of control

N#CC(C#N)N=Nc1ccc(Cl)cc1Cl
inactive: dose: 2.5 mg/kg/injection, schedule: Q04DX002 (ip), vehicle: Klucel (hydroxypropylcellulose) (HPC) 98 % of control | dose: 5.0 mg/kg/injection, schedule: Q04DX002 (ip), vehicle: Klucel (hydroxypropylcellulose) (HPC) 102 % of control | dose: 10.0 mg/kg/injection, schedule: Q04DX002 (ip), vehicle: Klucel (hydroxypropylcellulose) (HPC) 98 % of control

CN(C)P(=O)(N(C)C)N(C)C.[Cl][Al]([Cl])[Cl]
inactive: [9] 91 % of control | [7] 88 % of control | [8] 95 % of control

CN(C)C(=S)Oc1ccc([N+](=O)[O-])cc1Cl
inactive: [4] 103 % of control | [5] 95 % of control | [6] 100 % of control

c1cncc(Nc2c3ccccc3nc3ccccc23)c1
inactive: [10] 97 % of control | [11] 99 % of control | [12] 94 % of control

CN(C)c1ccc(C=Nc2cccc(O)c2)cc1
inactive: [1] 102 % of control | [2] 88 % of control | [3] 94 % of control

Cc1ccc2[nH]c3c(c2c1)CCCC3
inactive: dose: 50.0 mg/kg/injection, schedule: Q01DX001 (ip), vehicle: saline 101 % of control | [10] 101 % of control | [11] 107 % of control | [12] 101 % of control
